# Reference: patent US20240051952A1, “HMOX1 INDUCERS” (Mitobridge Inc., priority 2019, published 2024)
# System: Human Heme Oxygenase-1 (HMOX-1)
# Assay: ELISA assay to measure human heme oxygenase-1 (HMOX-1) in HepG2 lysate
# Assay type: cell-based
# Settings: fold change of human HMOX1 protein levels relative to DMSO control, HepG2
# Description: Example 143. ELISA Assay to Measure Human Heme Oxygenase-1 (HMOX-1) in HepG2 lysate
# Reagents and Technical Notes:
# ELISA capture antibody, standard HO-1, detection antibody and streptavidin HRP were supplied in the DuoSet IC Human total HO-1 ELISA from R&D systems (DYC3776-2). The substrate cocktail was KPL LumiGLO reserve Chemiluminescent Substrate (54-71-00). PBS was Corning Cellgro Cell Culture (21-040-CV). 10×PBS+0.05% tween20 (PBST) was from KPL.
# All incubations of the plate were at room temperature (20° C.) in a closed drawer.
# The ELISA plate was processed manually. All loadings were with a multichannel pipet. Plates were emptied by shaking into the sink and tapping onto paper towels to remove any remaining reagent. Plate washing was accomplished by loading all wells with PBS+0.05% tween20 (PBST) using a squirt bottle, shaking the PBST out and tapping the plate onto paper towels.
# Preparation of the ELISA Plate: • 1. anti-HO-1 capture antibody was 1440 μg/ml after reconstitution in PBS. This antibody was diluted to 8 μg/ml in PBS and 50 μl per well was added to a 384 well greiner “lumitrac 200” plate. Incubated overnight. • 2. The plate was emptied and 100 μl PBS+1% BSA added to all wells. Incubated 90 minutes at room temperature.
# Preparation of HepG2 Lysate: • 1. Cells were cultured in a 96-well tissue culture plate washed with PBS and then the plate frozen at −70° C. overnight. Plates were allowed to warm to ice temperature in an ice bucket. 20 μl of PBS, 0.5% Triton X100, 1 mM EDTA with 1×HALT™ protease inhibitors was added to each well and the plates incubated on ice for 1 hour. • 2. The lysates were frozen at −20° C. overnight.
# Measurement of HMOX1 (“HO-1”) • 1. In a polypropylene 384 well plate, human HO-1(after reconstitution in PBS+0.5% Triton+1 mM EDTA) was serially diluted from 20 ng/ml 2-fold in PBS+0.5% triton-X100, 1 mM EDTA to make a 12-point standard curve including a zero point. • 2. In a polypropylene 96 well plate, HepG2 lysate was diluted 1 to 20 in Diluent #4 from DUOSET kit in which the assay standard is also diluted. • 3. The PBS+1% BSA was emptied from the ELISA plate and 30 μl of all samples and standards were added (duplicates recommended). The plate was incubated 90 minutes. • 4. Emptied plate and washed 4 times with PBST. • 5. Diluted HO-1 detection antibody to 200 ng/ml in PBS+1% BSA and added 30 μl to all wells. Incubated 90 minutes. • 6. Emptied plate and washed 4 times with PBST. • 7. Added 30 μl streptavidin HRP at 1/200 in PBS+1% BSA (stock streptavidin concentration not specified) to all wells. Incubated 30 minutes. • 8. Emptied plate and washed 4 times with PBST. • 9. Diluted Lumiglo reserve reagent two parts buffer to one part lumiglo substrate. Added 30 μl to all wells. Incubated 5 minutes. • 10. Measured chemiluminescence on spectramax M5 using 150 ms integration.
# Table 1 below lists EC50 and fold changes of human HMOX1 protein levels relative to DMSO control upon treatment with representative compounds.
row,Maximum Fold induction,Compound
1,39,"Cn1c(Nc2nc3ccc(C(F)(F)F)cc3o2)nc2cc(C(=O)NCCOCC(C)(C)O)ccc21 [Example 42, N-(2-(2-hydroxy-2-methylpropoxy)ethyl)-1-methyl-2-((6-(trifluoromethyl)benzo[d]oxazol-2-yl)amino)-1H-benzo[d]imidazole-5-carboxamide]"
2,21,"Cn1c(Nc2nc3ccc(OCCO)cc3o2)nc2cc(C(=O)O)ccc21 [Example 101, 2-((6-(2-hydroxyethoxy)benzo[d]oxazol-2-yl)amino)-1-methyl-1H-benzo[d]imidazole-5-carboxylic acid]"
3,8-11,"Cn1c(Nc2nc3ccc(OC(F)(F)F)cc3o2)nc2cc(C(=O)O)c(F)cc21 [Example 70, 6-fluoro-1-methyl-2-((6-(trifluoromethoxy)benzo[d]oxazol-2-yl)amino)-1H-benzo[d]imidazole-5-carboxylic acid]"
4,25-31,"COCCNC(=O)c1ccc2c(c1)nc(Nc1nc3ccc(OCC(F)(F)F)cc3o1)n2C [Example 99, N-(2-methoxyethyl)-1-methyl-2-((6-(2,2,2-trifluoroethoxy)benzo[d]oxazol-2-yl)amino)-1H-benzo[d]imidazole-5-carboxamide]"
5,42,"Cn1c(Nc2nc3ccc(C(F)(F)F)cc3o2)nc2cc(C(=O)NCCN3CCCC3)ccc21 [Example 36, 1-methyl-N-(2-(pyrrolidin-1-yl)ethyl)-2-((6-(trifluoromethyl)benzo[d]oxazol-2-yl)amino)-1H-benzo[d]imidazole-5-carboxamide]"
6,25-53,"CC(C)C(N)C(=O)OCCOCCNC(=O)c1ccc2c(c1)nc(Nc1nc3ccccc3o1)n2C.Cl (racemic) [Example 30, 2-(2-(2-(benzo[d]oxazol-2-ylamino)-1-methyl-1H-benzo[d]imidazole-5-carboxamido)ethoxy)ethyl DL-valinate hydrochloride]"
7,24-35,"Cn1c(Nc2nc3ccc(OCC(F)(F)F)cc3o2)nc2cc(C(=O)NCCO)ccc21 [Example 100, N-(2-hydroxyethyl)-1-methyl-2-((6-(2,2,2-trifluoroethoxy)benzo[d]oxazol-2-yl)amino)-1H-benzo[d]imidazole-5-carboxamide]"
8,6-25,"COCCNC(=O)c1ccc2c(c1)nc(Nc1nc3cc(OC(F)(F)F)ccc3[nH]1)n2C [Example 14, N-(2-methoxyethyl)-1-methyl-2-((5-(trifluoromethoxy)-1H-benzo[d]imidazol-2-yl)amino)-1H-benzo[d]imidazole-5-carboxamide]"
9,33-37,"Cn1c(Nc2nc3ccc(OC(F)(F)F)cc3o2)nc2cc(C(=O)NOCCO)ccc21 [Example 126, N-(2-hydroxyethoxy)-1-methyl-2-((6-(trifluoromethoxy)benzo[d]oxazol-2-yl)amino)-1H-benzo[d]imidazole-5-carboxamide]"
10,26,"CC(O)CONC(=O)c1ccc2c(c1)nc(Nc1nc3ccccc3o1)n2C (stereo not drawn) [Example 120, 2-(benzo[d]oxazol-2-ylamino)-N-(2-hydroxypropoxy)-1-methyl-1H-benzo[d]imidazole-5-carboxamide]"
11,6-15,"COCCNC(=O)c1ccc2c(c1)nc(Nc1nc3ccccc3o1)n2C [Example 1i, 2-(benzo[d]oxazol-2-ylamino)-N-(2-methoxyethyl)-1-methyl-1H-benzo[d]imidazole-5-carboxamide]"
12,25-29,"Cn1c(Nc2nc3ccc(C(F)(F)F)cc3o2)nc2cc(C(=O)O)ccc21 [Example 31, 1-methyl-2-((6-(trifluoromethyl)benzo[d]oxazol-2-yl)amino)-1H-benzo[d]imidazole-5-carboxylic acid]"
13,27,"Cn1c(Nc2nc3ccccc3o2)nc2cc(C(O)C(F)(F)F)ccc21 (stereo not drawn) [Example 142, 1-(2-(benzo[d]oxazol-2-ylamino)-1-methyl-1H-benzo[d]imidazol-5-yl)-2,2,2-trifluoroethan-1-ol]"
14,38,"Cn1c(Nc2nc3cccc(C(F)(F)F)c3o2)nc2cc(C(=O)NCCOCCO)ccc21 [Example 117, N-(2-(2-hydroxyethoxy)ethyl)-1-methyl-2-((7-(trifluoromethyl)benzo[d]oxazol-2-yl)amino)-1H-benzo[d]imidazole-5-carboxamide]"
15,16-21,"Cn1c(Nc2nc3ccc(F)cc3o2)nc2cc(C(=O)O)ccc21 [Example 68, 2-((6-fluorobenzo[d]oxazol-2-yl)amino)-1-methyl-1H-benzo[d]imidazole-5-carboxylic acid]"
16,34-40,"COCCOc1ccc2nc(Nc3nc4cc(C(=O)NCCO)ccc4n3C)oc2c1 [Example 57, N-(2-hydroxyethyl)-2-((6-(2-methoxyethoxy)benzo[d]oxazol-2-yl)amino)-1-methyl-1H-benzo[d]imidazole-5-carboxamide]"
17,33,"Cn1c(Nc2nc3nccnc3s2)nc2cc(C(=O)NCCOCCO)ccc21 [Example 114, N-(2-(2-hydroxyethoxy)ethyl)-1-methyl-2-(thiazolo[4,5-b]pyrazin-2-ylamino)-1H-benzo[d]imidazole-5-carboxamide]"
18,32-59,"Cn1c(Nc2nc3ccc(C(F)(F)F)cc3o2)nc2cc(C(=O)NOCCO)ccc21 [Example 125, N-(2-hydroxyethoxy)-1-methyl-2-((6-(trifluoromethyl)benzo[d]oxazol-2-yl)amino)-1H-benzo[d]imidazole-5-carboxamide]"
19,15-32,"CCn1c(Nc2nc3ccc(OC(F)(F)F)cc3o2)nc2cc(C(=O)NCCO)ccc21 [Example 86, 1-ethyl-N-(2-hydroxyethyl)-2-((6-(trifluoromethoxy)benzo[d]oxazol-2-yl)amino)-1H-benzo[d]imidazole-5-carboxamide]"
20,7-12,"COCCNC(=O)c1ccc2c(c1)nc(Nc1nc3c(s1)CCCC3)n2C [Example 5, N-(2-methoxyethyl)-1-methyl-2-((4,5,6,7-tetrahydrobenzo[d]thiazol-2-yl)amino)-1H-benzo[d]imidazole-5-carboxamide]"
21,13-20,"Cn1c(Nc2nc3ccc(OC(F)(F)F)cc3o2)nc2cc(C(=O)NC(CO)CO)ccc21 [Example 48, N-(1,3-dihydroxypropan-2-yl)-1-methyl-2-((6-(trifluoromethoxy)benzo[d]oxazol-2-yl)amino)-1H-benzo[d]imidazole-5-carboxamide]"
22,8-12,"COCCNC(=O)c1cc2nc(Nc3nc4ccc(OC(F)(F)F)cc4o3)n(C)c2cc1F [Example 71, 6-fluoro-N-(2-methoxyethyl)-1-methyl-2-((6-(trifluoromethoxy)benzo[d]oxazol-2-yl)amino)-1H-benzo[d]imidazole-5-carboxamide]"
23,10 (n = 2),"O=C(O)c1ccc2c(c1)nc(Nc1nc3ccc(OC(F)(F)F)cc3s1)n2C1CCOCC1 [Example 2d, 1-(tetrahydro-2H-pyran-4-yl)-2-((6-(trifluoromethoxy)benzo[d]thiazol-2-yl)amino)-1H-benzo[d]imidazole-5-carboxylic acid]"
24,17-26,"Cn1c(Nc2nc3ccc(Br)cc3o2)nc2cc(C(=O)O)ccc21 [Example 91, 2-((6-bromobenzo[d]oxazol-2-yl)amino)-1-methyl-1H-benzo[d]imidazole-5-carboxylic acid]"
25,20-33,"COCCNC(=O)c1ccc2c(c1)nc(Nc1nc3ccc(OC(F)(F)F)cc3s1)n2C1CCOCC1 [Example 2e, N-(2-methoxyethyl)-1-(tetrahydro-2H-pyran-4-yl)-2-((6-(trifluoromethoxy)benzo[d]thiazol-2-yl)amino)-1H-benzo[d]imidazole-5-carboxamide]"

# Same assay, conditions: human HMOX1 protein in HepG2 lysate, ELISA; * = average of 2 or more EC50 determinations; NA = Not Active
row,Compound,EC50 [nM]
1,"COCCNC(=O)c1ccc2c(c1)nc(Nc1nc3c(s1)CCCC3)n2C [Example 5, N-(2-methoxyethyl)-1-methyl-2-((4,5,6,7-tetrahydrobenzo[d]thiazol-2-yl)amino)-1H-benzo[d]imidazole-5-carboxamide]",1300
2,"COCCNC(=O)c1ccc2c(c1)nc(Nc1nc3ccc(OC(F)(F)F)cc3o1)n2CC1CCOC1 (stereo not drawn) [Example 88, N-(2-methoxyethyl)-1-((tetrahydrofuran-3-yl)methyl)-2-((6-(trifluoromethoxy)benzo[d]oxazol-2-yl)amino)-1H-benzo[d]imidazole-5-carboxamide]",1500
